{"source": "patent US9265787B2", "about": "“Combined inhibition of the vitamin D receptor and DNA replication in the treatment of cancer” (Institute for Cancer Research, priority 2011, dated 2016)", "type_in_all_cases": "cell-based", "key": {"[1]": {"test_system": "Panc1:gfpH2B cells", "assay": "Time-lapse videomicroscopy of cell fates with siRNAs/drugs and gemcitabine", "from_the_text": "FIGS. 5A-5C show time lapse videomicroscopy tracking the fates of Panc1:gfpH2B cells treated with various combinations of siRNAs and drugs.\nWhite arrows show mitotic cells in Chk1 depleted cells. Other rounded cells are apoptotic.\nThe fate of Panc1:gfpH2B cells treated with various combinations of siRNA and gemcitabine was tracked with time-lapse videomicroscopy (FIG. 5A). […] Cells were transfected with indicated siRNAs, and synchronized at the G1/S boundary. Time-lapse was started upon release from the G1/S block and continued for the next 48 hours. Select frames from the movies (0, 12, 24 and 48 hours) are shown.\nA comparison of cells treated with gemcitabine in the presence and absence of UCN01, an inhibitor of the Chk1 DNA damage response kinase was carried out (FIG. 5A).\nThe percentage of cell death was quantified (FIG. 5C).\nThe mechanism of chemosensitization by inhibiting VDR was investigated, and it was determined that this mechanism is different from overriding the DNA damage checkpoint pathway through Chk1 inhibition (FIG. 6A). […] Chk1 was depleted by using siRNAs targeted to the Chk1 transcript from the Dharmacon smartPOOL siRNA library. The siRNAs included the sequence […] (SEQ ID NO:8), […] (SEQ ID NO:9), […] (SEQ ID NO:10), and […] (SEQ ID NO:11).\nLoss of VDR promotes apoptosis of gemcitabine-treated cells through a different pathway than that which is used after Chk1 inhibition. […]"}, "[2]": {"test_system": "BXPC3 cells", "assay": "Clonogenic assay with VDR antagonist TEI-9647 and gemcitabine", "protocol": "Note sensitization at 2 μM of TEI-9647. The average of 3 independent experiments is shown.\n(§1) TEI-9647 alone killed cells, consistent with reduced clonogenic survival by VDR siRNA alone. Clonogenic assays were performed using several different doses of the inhibitor compound to compare clonogenic survival to assays described above using VDR siRNAs and shRNAs. The clonogenic assays were performed as described above. The TEI-9647 compound was added prior to gemcitabine addition, consistent with the timing of the siRNA treatments described above. Cells were treated with inhibitor for 48 hours followed by gemcitabine treatment for 48 hours and allowed to form colonies for 10-12 days. Survival was then quantified by staining and destaining of subsequent colonies with crystal violet and reading the resultant destain at wavelength 595 nm."}, "[3]": {"test_system": "Panc1 cells", "assay": "Clonogenic assay with VDR antagonist TEI-9647 and gemcitabine", "conditions": "data not shown", "protocol": "as §1"}, "[4]": {"test_system": "BXPC3shVDR cells", "assay": "Drug survival of BXPC3 cells stably depleted of VDR (rescue experiments)"}, "[5]": {"test_system": "Panc1 cells", "assay": "CellTiter-Glo viability assay with VDR short hairpin RNA and gemcitabine"}, "[6]": {"test_system": "BXPC3 cells", "assay": "CellTiter-Glo viability assay with VDR short hairpin RNA and gemcitabine"}, "[7]": {"test_system": "BXPC3 cells", "assay": "Clonogenic survival after siRNA transfection and 18 h gemcitabine", "conditions": "VDR siRNA-transfected BXPC3 cells, gemcitabine 18 hours, colonies after eight days", "protocol": "(§2) Clonogenic survival of BXPC3 cells transfected with indicated siRNAs and treated with drug or vehicle. Plk1 siRNA is positive control for killing. […] Panc 1 cells transfected with VDR siRNA are also included.\n(§3) Cells were transfected with siRNA, treated with gemcitabine for 18 hours, then seeded. Surviving colonies were quantitated eight days later."}, "[8]": {"test_system": "Panc1 cells", "assay": "Clonogenic survival after siRNA transfection and 18 h gemcitabine", "conditions": "VDR siRNA-transfected Panc 1 cells, gemcitabine 18 hours, colonies after eight days", "protocol": "as §2, §3"}, "[9]": {"test_system": "Panc1 cells", "assay": "Immunofluorescence staining for DNA damage response proteins", "conditions": "gemcitabine-treated compared to vehicle treated cells", "quoted_text": "Immunofluorescence staining for DNA damage response proteins, TAO1, 53BP1, and γ-H2AX of gemcitabine treated Panc1 cells transfected with control or VDR siRNA."}, "[10]": {"test_system": "BXPC3 cells stably expressing gfpH2B", "assay": "Time-lapse microscopy of BXPC3 cells stably expressing gfpH2B (preliminary experiments)", "conditions": "S phase by FACS", "from_the_text": "VDR is known to induce transcription of the Cdk inhibitor, p21, and this is one of the reasons used to explain the anti-proliferative activity of vitamin D. As p21 is also activated by DNA damage, it is possible that VDR contributes to the cell cycle checkpoint arrest induced by gemcitabine. This will be directly tested by time-lapse microscopy of synchronized cells after depletion of VDR and treatment with gemcitabine."}, "[11]": {"test_system": "Panc1 cells", "assay": "Effect of the sublethal screening dose of gemcitabine (phospho-H2AX foci, cell cycle arrest)", "conditions": "sublethal dose (IC20)"}}}
{"compound": "CN[C@@H]1C[C@H]2O[C@@](C)([C@@H]1OC)n1c3ccccc3c3c4c(c5c6ccccc6n2c5c31)C(=O)N[C@@H]4O", "note": "[UCN01]", "values": [{"measurement": "fate of gemcitabine-treated cells (mitotic entry, phase of death)", "setting": "[1]; 48 hour time-lapse after release from G1/S block", "value": "promoted cells to first enter mitosis (arrows) which then caused cell death"}, {"measurement": "cell number at 48 hour versus 0 hour", "setting": "[1]; gemcitabine-treated cells with UCN01, phase contrast images", "value": "reduced cell number"}]}
{"compound": "C=C1C[C@H](C[C@@H](C)[C@H]2CC[C@H]3/C(=C/C=C4/C[C@@H](O)C[C@H](O)C4=C)CCC[C@]23C)OC1=O", "note": "[TEI-9647]", "values": [{"measurement": "sensitization to gemcitabine (clonogenic survival)", "setting": "[2]; TEI-9647 added prior to gemcitabine", "value": "sensitize both BXPC3 and Panc1 cells to gemcitabine"}, {"measurement": "TEI-9647 concentration at which sensitization is noted", "setting": "[2]; with gemcitabine, average of 3 independent experiments", "value": 2, "unit": "µM"}, {"measurement": "effect of TEI-9647 alone on clonogenic survival", "setting": "[2]; without gemcitabine", "value": "killed cells"}, {"measurement": "sensitization to gemcitabine (clonogenic survival)", "setting": "[3]", "value": "sensitize both BXPC3 and Panc1 cells to gemcitabine"}]}
{"compound": "CC(=O)O[C@H]1C(=O)[C@@]2(C)[C@H]([C@H](OC(=O)c3ccccc3)[C@]3(O)C[C@H](OC(=O)[C@H](O)[C@@H](NC(=O)c4ccccc4)c4ccccc4)C(C)=C1C3(C)C)[C@]1(OC(C)=O)CO[C@@H]1C[C@@H]2O", "note": "[taxol]", "values": [{"measurement": "effect of VDR status on killing by taxol", "setting": "[4]; two concentrations of taxol, BXPC3 parental, shVDR and rescued cells", "value": "did not affect killing"}]}
{"compound": "VDR shRNA: VDR short hairpin RNA (clone ID TRCN000019504), sequence CGAAGUGUUUGGCAAUGAGAU (SEQ ID NO: 7) (listed as Homo sapiens)", "values": [{"measurement": "sensitization to killing by gemcitabine (viability)", "setting": "[5]", "value": "sensitized both cell lines to killing by gemcitabine"}, {"measurement": "sensitization to killing by gemcitabine (viability)", "setting": "[6]", "value": "sensitized both cell lines to killing by gemcitabine"}]}
{"compound": "Nc1ccn([C@@H]2O[C@H](CO)[C@@H](O)C2(F)F)c(=O)n1", "note": "[gemcitabine, Gemcitabine]", "values": [{"measurement": "further reduction of survival by gemcitabine", "setting": "[7]", "value": "> 85", "unit": "%"}, {"measurement": "further reduction of survival by gemcitabine", "setting": "[8]", "value": "> 85", "unit": "%"}, {"measurement": "survival of BXPC3shVDR cells carrying the C288G VDR mutant", "setting": "[4]; 50 nM, compared to the same cells rescued by wild type VDR", "value": "killed"}, {"measurement": "phospho-H2AX and 53BP1 staining in nuclei", "setting": "[9]", "value": "increased"}, {"measurement": "duration of arrest in interphase after gemcitabine treatment", "setting": "[10]", "value": "up to 48 hours"}, {"measurement": "DNA damage and cell cycle arrest at the screening dose", "setting": "[11]", "value": "sufficient to induce DNA damage"}]}
